This note sets out measurements from ChEMBL document CHEMBL1201862, “PubChem BioAssay data set” (2004).

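1) Cells in 96-well plates. 2) Compound, 48 h, 5 concentrations. 3) Linear interpolation between surrounding doses. 4) Unreached endpoint = highest concentration. GI50: concentration for 50% inhibition of growth.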 The source made the active and inactive calls. No stated cut-off is given here; in the data, active = GI50 up to about 1.1 µM and inactive = higher.

Test systems include CCRF-CEM; RPMI-8226; NCI-H460; A498; HT-29; LOX IMVI; ACHN; MOLT-4; SNB-19; KM12; HL-60; M14; TK-10; A549; CAKI-1; SK-MEL-5; MCF7; MDA-MB-435; Hs-578T.
Test in all cases: inhibition of tumour cell growth, NCI panel, 48 h

As to `O=C(Nc1nnc(S)[nH]1)C(=O)C(c1cnc2ccc([N+](=O)[O-])cc2n1)[N+](=O)[O-]` (centres undefined), the GI50 in the test on CCRF-CEM is > 100 µM (inactive); with RPMI-8226 it was 89.7 µM (inactive); in the test on NCI-H460 it was > 100 µM (inactive); in the test on A498, > 100 µM (inactive); in the test on HT-29, > 100 µM (inactive); in the test with LOX IMVI it was > 100 µM (inactive). Also, the GI50 was 94.8 µM (inactive) in the test with ACHN; > 100 µM (inactive) with MOLT-4; > 100 µM (inactive) in the test with SNB-19; > 100 µM (inactive) in the test with KM12; > 100 µM (inactive) with HL-60; > 100 µM (inactive) in the test with M14. Moreover, the GI50 in the test on TK-10, in the test on A549, in the test on CAKI-1 and in the test on SK-MEL-5 was > 100 µM (inactive) in each case.
Consider `CC#CC(O)(C(=O)OC1CCC2CCC1N2C)C1CCCC1` (centres undefined), for which the GI50 in the test with RPMI-8226 is > 100 µM (inactive); with HT-29, > 100 µM (inactive); in the test with LOX IMVI it was > 100 µM (inactive); in the test on MCF7 it was > 100 µM (inactive); with ACHN, > 10 µM (inactive); in the test on MOLT-4, > 100 µM (inactive). Also, the GI50 in the test on SNB-19, with KM12, with M14, in the test with TK-10, with A549 and in the test on CAKI-1 was > 100 µM (inactive) in each case. Besides, the GI50 in the test on SK-MEL-5 is > 100 µM (inactive).
In the case of `O=C(/C(=N/Nc1cn[nH]c(=O)c1Cl)c1ccccc1)c1ccccc1`, the GI50 in the test on CCRF-CEM was 32.4 µM (inactive); with MDA-MB-435, 5.11 µM (inactive); in the test with RPMI-8226, 24.6 µM (inactive); in the test with A498 it was 14.7 µM (inactive); with HT-29, 20 µM (inactive); in the test on LOX IMVI it was 18.8 µM (inactive). In addition, the GI50 in the test with MCF7 is 45.8 µM (inactive); in the test with ACHN, 57.9 µM (inactive); with MOLT-4, 23.2 µM (inactive); in the test on SNB-19, 91.6 µM (inactive); in the test with KM12, 12.8 µM (inactive); with HL-60, 16.8 µM (inactive). In addition, the GI50 with M14 is 46.8 µM (inactive); in the test with TK-10 it was 24.9 µM (inactive); with A549, 18.3 µM (inactive); in the test with CAKI-1, 19.7 µM (inactive); in the test with SK-MEL-5 it was 28.2 µM (inactive).
On to `CCCCCCCCCCCC(=O)OCC1OC(n2cc(F)c(=O)[nH]c2=O)C(N)C(OC(=O)CCCCCCCCCCC)C1O` (centres undefined), for which the GI50 with CCRF-CEM was 37.2 µM (inactive); in the test on RPMI-8226 it was 54.5 µM (inactive); in the test on NCI-H460 it was > 100 µM (inactive); in the test with A498, > 100 µM (inactive); in the test with HT-29, > 100 µM (inactive); with LOX IMVI, 88.3 µM (inactive). In addition, the GI50 was > 100 µM (inactive) in the test with ACHN; 27 µM (inactive) in the test with MOLT-4; > 100 µM (inactive) in the test on SNB-19; 45.4 µM (inactive) in the test with KM12; 29.6 µM (inactive) in the test on HL-60; 64.4 µM (inactive) in the test with M14. In addition, the GI50 in the test on TK-10 was > 100 µM (inactive); in the test with A549, > 100 µM (inactive); in the test with CAKI-1, > 100 µM (inactive); in the test with SK-MEL-5, 0.59 µM (active).
In the case of `O=C(CCc1nnc(S)[nH]1)Nc1ccccc1Cl`, the GI50 with CCRF-CEM, with RPMI-8226, in the test with NCI-H460, with A498, in the test on HT-29 and in the test with LOX IMVI was > 100 µM (inactive) throughout. The GI50 with ACHN, with MOLT-4, in the test on SNB-19, with KM12, with HL-60 and with M14 was > 100 µM (inactive) in each case. Besides, the GI50 in the test on TK-10, with A549, in the test with CAKI-1 and in the test with SK-MEL-5 was > 100 µM (inactive) each time.
On to `COC(=O)c1nc(N)nc(O)c1-c1ccc(Cl)cc1`, for which the GI50 with CCRF-CEM, in the test with RPMI-8226, in the test on NCI-H460, in the test on A498, with HT-29 and with LOX IMVI was > 100 µM (inactive) throughout. Besides, the GI50 in the test with ACHN, in the test on MOLT-4, in the test on SNB-19, in the test on KM12, with HL-60 and in the test with M14 was > 100 µM (inactive) each time. The GI50 in the test on TK-10, in the test on A549, with CAKI-1 and in the test with SK-MEL-5 was > 100 µM (inactive) in each case.
As for `O=c1[nH]cc(COCCCO)c(=O)[nH]1`, the GI50 in the test on CCRF-CEM, with RPMI-8226, in the test with NCI-H460, in the test on A498, in the test on HT-29 and with LOX IMVI was > 100 µM (inactive) each time. In addition, the GI50 in the test on ACHN, in the test on MOLT-4, with SNB-19, in the test with KM12, in the test with HL-60 and with M14 was > 100 µM (inactive) each time. For the same compound, the GI50 with TK-10, in the test with A549, in the test on CAKI-1 and with SK-MEL-5 was > 100 µM (inactive) throughout.
Regarding `CN(CC(=O)O)c1ncc2c(n1)-c1ccccc1CC2`, the GI50 in the test on CCRF-CEM, with MDA-MB-435, in the test on Hs-578T, in the test with RPMI-8226, in the test with NCI-H460 and in the test on A498 was > 100 µM (inactive) throughout. Besides, the GI50 in the test with HT-29, with LOX IMVI, in the test on MCF7, in the test on ACHN, with MOLT-4 and in the test on SNB-19 was > 100 µM (inactive) each time. The GI50 in the test on KM12, in the test with HL-60, with M14, in the test with TK-10, with A549 and in the test on CAKI-1 was > 100 µM (inactive) throughout. In addition, the GI50 in the test on SK-MEL-5 was > 100 µM (inactive).
Take `O=C(O)CCCCCOc1cccnc1/C=N/NC1=NCCN1`: the GI50 in the test on CCRF-CEM is > 100 µM (inactive); with RPMI-8226, > 100 µM (inactive); in the test with NCI-H460 it was > 100 µM (inactive); in the test on A498 it was 59.6 µM (inactive); in the test with HT-29 it was > 100 µM (inactive); in the test on LOX IMVI, > 100 µM (inactive). In addition, the GI50 in the test with ACHN, in the test on MOLT-4, in the test with SNB-19, with KM12, with HL-60 and in the test on M14 was > 100 µM (inactive) throughout. The GI50 in the test with TK-10, in the test with A549, in the test with CAKI-1 and with SK-MEL-5 was > 100 µM (inactive) in each case.
As to `O=C1Oc2ccccc2C(=O)/C1=C/N1C(=O)/C(=C/c2ccc3c(c2)OCO3)SC1=S`, the GI50 is 26.1 µM (inactive) with CCRF-CEM; 18.7 µM (inactive) in the test with MDA-MB-435; 1.32 µM (inactive) in the test on Hs-578T; 14.1 µM (inactive) in the test with RPMI-8226; 16.8 µM (inactive) with NCI-H460; 3.99 µM (inactive) in the test on A498. Besides, the GI50 with HT-29 was 21.2 µM (inactive); with LOX IMVI, 33.3 µM (inactive); with MCF7, 20.7 µM (inactive); in the test on ACHN, 11.8 µM (inactive); in the test with MOLT-4, 17.5 µM (inactive); with KM12, 16.8 µM (inactive). The GI50 is 26.9 µM (inactive) with HL-60; 17.9 µM (inactive) with M14; 18.1 µM (inactive) with A549; 17.5 µM (inactive) in the test on CAKI-1; 15.7 µM (inactive) in the test with SK-MEL-5.
In the case of `NNC(=O)CCC(=O)NC1C2CC3CC(C2)CC1C3` (centres undefined), the GI50 with CCRF-CEM, with RPMI-8226, in the test on NCI-H460, with A498, in the test with HT-29 and with LOX IMVI was > 100 µM (inactive) in each case. Moreover, the GI50 is > 100 µM (inactive) with ACHN; 43.5 µM (inactive) with MOLT-4; > 100 µM (inactive) in the test on SNB-19; > 100 µM (inactive) with KM12; > 100 µM (inactive) with HL-60; > 100 µM (inactive) in the test on M14. In addition, the GI50 in the test with TK-10, in the test on A549, with CAKI-1 and in the test on SK-MEL-5 was > 100 µM (inactive) throughout.
`CC(=O)OCC1OC(OC2CC3C(C)(C)C(OC(C)=O)CC[C@]3(C)C3CCC45CC4(CC[C@H]5C(C)CC(O)[C@@H](O)C(C)(C)O)[C@]23C)C(O)C(O)C1O` (some centres undefined): the GI50 is 6.46 µM (inactive) in the test on CCRF-CEM; 0.173 µM (active) in the test with RPMI-8226; 8.95 µM (inactive) with NCI-H460; 7 µM (inactive) in the test with A498; 8.05 µM (inactive) in the test with HT-29; 6.95 µM (inactive) in the test on LOX IMVI. The GI50 in the test with ACHN is 7.98 µM (inactive); with MOLT-4, 2.36 µM (inactive); in the test with SNB-19 it was 7.08 µM (inactive); in the test with KM12, 7.85 µM (inactive); with HL-60, 3.5 µM (inactive); in the test on M14 it was 6.95 µM (inactive). The GI50 in the test with TK-10 was 7.76 µM (inactive); in the test on A549, 8.02 µM (inactive); in the test with CAKI-1, 7.21 µM (inactive); in the test on SK-MEL-5 it was 7.13 µM (inactive).
